In patent US11596623B2, “Methods for treating virus infection or proliferation” (HOWARD UNIVERSITY, priority 2018, dated 2023):
pKd: −log10 of the molar value.

Key:
HSV-1 [1] = test: Immunofluorescence and confocal microscopy of ICP0; format: cell-based; details: 10 μM, HSV-1 MOI 1.0, 30 h
Description: The HEp-2 cells were infected with HSV-1 at an MOI of 1.0 for 30 h along with the indicated compounds and control. The no-virus control (A), vehicle DMSO treated (B) and SD29-14 10 μM treated (C) cells were fixed with 4% paraformaldehyde and stained with anti-ICP0-FITC (green) and DAPI for DNA (blue) in the nucleus. The slides were observed under a Nikon confocal microscope (60× magnification lens) and pictures were taken to show infected cells (green) and total cells (DAPI). All scale bars correspond to 20 μm. The imaging experiments were performed three independent times, and the results shown represent one of the three experiments. (D) Quantification of fluorescent cells by Image based cell sorting in a Cellometer (Nexcelom Vision). […] The cells were prepared by immunostaining with ICP0 antibody after 24-h incubation with the indicated compounds. The total cell counts were 1.01×10^6/ml, 4.69×10^6/ml, and 5.36×10^6/ml for DMSO, SD29-14 (10 μM), and SD29-14 (100 μM) respectively. The numbers show the mean±SE of three replicates.
Hep-2 cells were grown to about 80% confluency in 12 well plate and the cells were co-infected with HSV-1 at an MOI of 1.0 for 30 h along with the indicated inhibitor compounds and control. The cells were fixed at room temperature with 4% paraformaldehyde-PBS for 15 minutes and then permeabilized at room temperature by 0.5% Triton X-100-PBS (pH 7.4) for 10 min. […]

HSV-1 [2] = test: Plaque formation unit (pfu) assay; format: cell-based
Description: The viral plaque assay was performed as previously described [Tang Q, Li L, Ishov A M, Revol V, Epstein A L, Maul G G. Determination of minimum herpes simplex virus type 1 components necessary to localize transcriptionally active DNA to ND10. J Virol. 2003; 77:5821-28.] with slight modifications. The HSV-1 strain 17 was diluted serially in a volume of 1 mL. Then 300 ul of the virus was added onto confluent HEp-2 cell monolayers in 12-well plates; each dilution had 3 wells. After adsorption for 2 h, the medium was removed and the cells were washed twice with serum-free DMEM and overlaid with phenol-free DMEM containing 5% FCS, 0.5% low-melting point agarose (GIBCO), and 1% penicillin-streptomycin. The cells were incubated at 37° C. for 48 hours. Neutral red was added on the agarose to stain the live cells. The plaques were counted and reported as pfu per mL. Mean pfu was determined after averaging the number of pfu from different dilutions. Student's t-tests were used to statistically analyze differences between the groups; a p-value lower than 0.005 was used as the threshold for a significant difference.
To assess the efficacy of SD-29 on the HSV-1 proliferation, a plaque assay was performed. We wanted to quantitatively assess whether SD-29 could inhibit viral replication. Because HSV-1 was able to enter cultured HEp-2 cells, we evaluated whether this entry led to productive virus replication.
In Table 1, confluent monolayers of HEp-2 cells were infected with serially diluted HSV-1 virus and were fixed and Giemsa stained at 0, 6, 12, and 24 hr post infection. The numbers of plaques were visualized. The number of plaques formed post infection decreased in the presence of SD-29 in a time-dependent manner.

[3] = molecular target: T1, recombinant RACK1A protein (Oryza sativa subsp. japonica, UniProt Q6L4F8); test: Surface Plasmon Resonance (SPR) binding assay; parameters: species or system rice; details: immobilized recombinant RACK1A, KD50=kd/ka
T1 construct: His tag (C); made in house; host or cells: E. coli BL21(DE3)
Description: SD-29 (left panel) and SD-29-12 (right panel) were separately injected three times on the CM5 chip at 0, 1.56 μM, at 3.13 μM, 6.25 μM, 12.5 μM, 25 μM, 50 μM, and 100 μM (top sensor) concentrations (left panel) and at 3.13 μM, 6.25 μM, 12.5 μM, 25 μM, 50 μM, and 100 μM (top sensor) concentrations (right panel).
To obtain in vitro confirmation of the binding of the isolated compounds to the purified RACK1 protein, the small compound SD-29 and its structural analog SD29-12 were evaluated for their binding potential with the recombinant RACK1A proteins using the Surface Plasmon Resonance (SPR) chip. SPR experiments were carried out with a Biacore T200 equipped with a CM5 sensor chip. Briefly, recombinant RACK1A cysteine-tagged protein was immobilized on flow cell (FC) 2 in HEPES buffered saline (10 mM Hepes, pH 7.4, and 150 mM NaCl, 3 mM CaCl2)) using a thiol-coupling kit according to the manufacturer's protocol, resulting in immobilization levels of 4580 response units (RU). FC1 was only activated and inactivated and used as a reference. SD-29 stock solution was diluted to a final concentration of 100, 75, 50, 25, 10 μM and 1 μM injected in 10 mM Hepes, 150 mM NaCl, 3 mM CaCl2), 1% DMSO, and 0.5% P20. Each injection was repeated three times for 60 s. […] KD50 is calculated by the equation: KD50=kd/ka; kd—dissociation rate constant, ka—association rate constant. […]

T1 sequence (Q6L4F8 whole entry): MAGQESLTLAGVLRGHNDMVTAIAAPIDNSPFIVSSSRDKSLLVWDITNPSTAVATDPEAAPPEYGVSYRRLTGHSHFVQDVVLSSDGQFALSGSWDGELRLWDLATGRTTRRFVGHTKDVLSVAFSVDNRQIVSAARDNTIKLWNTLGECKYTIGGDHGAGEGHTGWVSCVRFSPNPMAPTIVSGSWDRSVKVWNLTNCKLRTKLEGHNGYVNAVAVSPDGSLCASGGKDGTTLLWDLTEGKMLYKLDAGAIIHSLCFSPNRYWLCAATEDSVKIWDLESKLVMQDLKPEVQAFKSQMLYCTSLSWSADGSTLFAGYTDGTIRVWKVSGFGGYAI

Row | Compound | ICP0 protein expression (immunofluorescence) (HSV-1 [1]) | Plaque formation unit (HSV-1 [2]; 0 hpi) [PFU/mL] | Plaque formation unit (HSV-1 [2]; 6 hpi) [PFU/mL] | Plaque formation unit (HSV-1 [2]; 12 hpi) | Plaque formation unit (HSV-1 [2]; 24 hpi) | production of infectious virions (HSV-1 [2]; infected HEp-2 cells, versus DMSO) | pKd [3]
1 | Nn1c(S)nnc1-c1cc(Cl)cc(Cl)c1 [SD29-14] | effectively eliminated any expression of ICP0 protein | – | – | – | – | – | –
2 | Nn1c(S)nnc1-c1ccc(F)cc1 [SD-29] | – | 0 ± 0 | 0 ± 0 | 1 ± 0.08 × 10^2 PFU/mL | 1.8 ± 0.04 × 10^5 PFU/mL | failed to produce significant infectious virions | 4.38
